Two molecules from patent US20140057941A1, “Methods For Increasing Mean Corpuscular Volume” (priority 2011, published 2014) can be followed below.

What all share (assay type): in vivo
The test system of series [1] is human subjects with stage 3 or stage 4 chronic kidney disease. Put plainly: MCV in stage 3 and stage 4 chronic kidney disease patients, 4 weeks. To be noted: stage 3/4 CKD. On the procedure: In another series of experiments, the effect of a compound of the present invention on MCV was determined in stage 3 and stage 4 chronic kidney disease patients ([…]) as follows. Subjects with stage 3 or stage 4 chronic kidney disease were administered placebo or Compound A (1.5 mg/kg or 2.0 mg/kg) twice or thrice weekly for 4 weeks. MCV values were measured weekly.

The test system is the same in series [2]. Put plainly: MCV in stage 3 and stage 4 chronic kidney disease patients not receiving dialysis, fixed dose, 17 weeks. Particulars: fixed dose 50 mg or 100 mg twice weekly for 17 weeks, dose adjustments from week 5; stage 3/4 CKD not on dialysis. On the procedure: In another set of experiments, the effect of compound of the present invention on MCV was determined in human subjects with stage 3 and stage 4 chronic kidney disease patients (eGFR<60 ml/min) as follows. Subjects with stage 3 or stage 4 chronic kidney disease not receiving dialysis were administered Compound A at a fixed dose of either 50 mg or 100 mg twice weekly for a period of 17 weeks. Dose adjustments were permitted from week 5 onward to correct and maintain subjects to a target hemoglobin range; however, doses were not allowed to exceed 2.2 mg/kg per dose. MCV values were measured weekly.

Series [3] deals with human subjects with end-stage renal disease. The series is described as follows: Mean corpuscular volume (MCV) in human subjects with end-stage renal disease on hemodialysis, 6 weeks TIW, no IV iron. Particulars: ESRD; for Mean Change from Baseline MCV at Day 43 (6 weeks) of Treatment: no IV iron; for MCV response following administration for six weeks (Table 1, in words): TIW for 6 weeks, Compound A 1.0, 1.5, 2.0 mg/kg or standard of care epoetin alfa; for Change from baseline of mean MCV over time during the 6 week treatment period (FIG. 1): TIW, Compound A 1.0, 1.5 or 2.0 mg/kg or epoetin alfa. On the procedure: The effect of a compound of the present invention on MCV was determined in human subjects with end-stage renal disease as follows. Subjects had been receiving stable maintenance hemodialysis for at least 4 months prior to the initiation of the present study. Additionally, subjects had been maintained on standard of care stable doses of epoetin alfa for the treatment of anemia prior to initiation of the study described herein.
In order to examine differences in the MCV response in subjects treated with a compound of the invention compared to the MCV response in subjects treated with epoetin alpha (the current standard of care), all IV iron supplementation was halted two weeks prior to treatment initiation. Administration of oral iron was allowed.
[…] Baseline MCV levels were determined prior to treatment (mean of two screening period measurements with the Day 1 measurement). MCV levels were measured weekly throughout the 6-week study period.

Series [4] relates to human patients, particularly having chronic kidney disease. Put plainly: Overall safety and efficacy of tested doses in human patients. Particulars: 0.7 to 2.5 mg/kg administered TIW, BIW, or QW. The text has this:
In particular embodiments, the present invention provides an efficacious therapeutic compound for treating a human subject having reduced mean corpuscular volume (MCV). In one embodiment, the invention comprises the compound [(4-hydroxy-1-methyl-7-phenoxy-isoquinoline-3-carbonyl)-amino]-acetic acid for use in methods of increasing mean corpuscular volume (MCV) in a human subject.

Series [5] deals with human subjects with end-stage renal disease. Put plainly: Mean hemoglobin levels in human subjects with end-stage renal disease, 6 week treatment. Particulars: TIW; Compound A 1.5 mg/kg and 2.0 mg/kg or epoetin alfa; ESRD.

Consider `Cc1nc(C(=O)NCC(=O)O)c(O)c2ccc(Oc3ccccc3)cc12` [Compound A, [(4 hydroxy-1-methyl-7-phenoxy-isoquinoline-3-carbonyl)-amino]-acetic acid], for which the “Mean MCV over time (FIG. 3)” value in series [1] (1.5 mg/kg or 2.0 mg/kg twice or thrice weekly for 4 weeks) was “mean MCV increased over time”. Besides, the “Mean change from baseline MCV at Day 22 (FIG. 4)” value in series [1] (1.5 mg/kg or 2.0 mg/kg twice or thrice weekly, increase) is listed as “greater than 3 fL”. In series [2], the “Mean MCV over time (FIG. 5)” value is “mean MCV initially increased and then stabilized over time”. Moreover, the “Mean Change from Baseline MCV at Day 43 (6 weeks) of Treatment” value in series [3] (1 mg/kg TIW, N = 10) is recorded as “+0.90 fL”; in series [3] (1.5 mg/kg TIW, N = 9), “+1.46 fL”; in series [3] (2.0 mg/kg TIW, N = 9) it was “+2.50 fL”. Further, the “Mean increase in MCV over baseline after 6 weeks of treatment” value is on record as 2.03 fL in series [3] (1.3 mg/kg TIW, N=5) and 2.27 fL in series [3] (1.8 mg/kg TIW, N=12). The “MCV response following administration for six weeks (Table 1, in words)” value in series [3] is on record as “MCV increased in a dose-dependent manner”. Also, the “Change from baseline of mean MCV over time during the 6 week treatment period (FIG. 1)” value in series [3] is listed as “resulted in an increase in mean MCV over time”. In addition, the “Efficacy of tested doses (increases in MCV)” value in series [4] was “effective”. For the same molecule, the “Safety of tested doses” value in series [4] is listed as “safe”. For the same molecule, the “Changes in mean hemoglobin levels during the 6 week treatment period (FIG. 2)” value in series [5] is “time-dependent increase in mean hemoglobin levels”.

In the case of “Epoetin alfa: erythropoiesis-stimulating agent; current standard of care for anemia, used as control [reference compound]”, in series [3], the “MCV response following administration for six weeks (Table 1, in words)” value is on record as “showed decreases in MCV” and the “Change from baseline of mean MCV over time during the 6 week treatment period (FIG. 1)” value is reported as “no increase in mean MCV occurred”. Besides, the “Mean Change from Baseline MCV at Day 43 (6 weeks) of Treatment” value in series [3] (standard of care doses TIW, N = 10) is -0.12 fL. In series [5], the “Changes in mean hemoglobin levels during the 6 week treatment period (FIG. 2)” value is “did not result in an increase hemoglobin levels”.
